Measurements as given in patent US8715706B2, “Methods and devices for delivery of pharmaceutical agents within orifices of the body” (RDD Pharma, Ltd., priority 2009, dated 2014).

Legend:
anal sphincter [1] = assay: Rectal manometry of resting anal pressure after Nifedipine from localized drug release system; format: in vivo, human; details: 90 minutes after insertion, N 6
Protocol: Six healthy individuals were selected for measuring resting anal pressure as a function of different doses of Nifedipine administered using a localized drug release system as per an embodiment of the present invention.
All dimensions are when empty before filling with API. When tested in a water bath, substantially all the API exited the shell within 40 minutes.
(§1) The measurements were conducted using 4 mg, 12 mg or 24 mg of Nifedipine as API, respectively. A Nifedipine (API) solution was prepared at 45 degrees Celsius in a heated water bath. A 22 gauge dispensing needle (Techon Systems) was inserted through the tail and into the coated shell of the drug release system. While the shell was evacuated of air, one milliliter of Nifedipine compound was delivered to the shell via a syringe attached to the needle. A clip was used to seal the tail and the system was left until the Nifedipine became solid.
A rectal manometry was used to measure resting anal pressure at baseline (before insertion) and 90 minutes after insertion of each shell with the relevant amount of API in a volume of one milliliter. The time of release of the API (API release time) ranged between 20-25 minutes (the variation due to changes in the normal human body temperature). FIGS. 12A and 12C graphically display the results of this study.

[2] = pK studies, rectal rate of absorption using drug release system; details: rectally, drug release system of Example 1, FIGS. 14 and 15
Description: Accordingly, it is intended to embrace all such alternatives, modifications and variations that fall within the spirit and broad scope of the appended claims.

anal sphincter [3] = assay: Rectal manometry of resting and squeezing anal pressure tonus after Phenylephrine from localized drug release system; format: in vivo, human; design: Squeeze Rectal ref max / Squeeze Abs ref mean: unit not given here
Protocol: The measurements conducted included resting anal pressure tonus and squeezing anal pressure tonus.
as §1, with “using 40” for “using 4 mg, 12”, “mg and 80” for “mg or 24”, “of Phenylephprine” for “of Nifedipine”, “A Phenylephprine” for “A Nifedipine”, “the Phenylephrine” for “the Nifedipine”
A rectal manometer was used to measure resting anal pressure tonus and squeezing anal pressure tonus at baseline (before insertion), […] amount of API in a volume of one milliliter. The API release time ranged between 20-25 minutes (the variation due to changes in the normal human body temperature). The results are shown below in Table III (40 mg) and Table IV (80 mg). Values shown in bold lettering in Table IV represent statistically significant difference (p<0.05) from baseline value, using paired t-test.

anal canal = details: topical, cited from earlier work

## COC(=O)C1=C(C)NC(C)=C(C(=O)OC)C1c1ccccc1[N+](=O)[O-] [Nifedipine]
Anal sphincter [1]; 4 mg
  Resting Max Pressure Rectal Ref, Max: 151.0
  Resting Max Pressure Rectal Ref, Mean: 111.6
  Resting Max Pressure Rectal Ref, Median: 111.5
  Resting Max Pressure Rectal Ref, Min: 72.2
  Resting Mean Pressure Rectal Ref, Max: 124.0
  Resting Mean Pressure Rectal Ref, Mean: 94.2
  Resting Mean Pressure Rectal Ref, Median: 92.3
  Resting Mean Pressure Rectal Ref, Min: 57.7
Anal sphincter [1]; 12 mg
  Resting Max Pressure Rectal Ref, Max: 187.1
  Resting Max Pressure Rectal Ref, Mean: 105.9
  Resting Max Pressure Rectal Ref, Median: 88.0
  Resting Max Pressure Rectal Ref, Min: 79.8
  Resting Mean Pressure Rectal Ref, Max: 89.4
  Resting Mean Pressure Rectal Ref, Mean: 75.0
  Resting Mean Pressure Rectal Ref, Median: 73.2
  Resting Mean Pressure Rectal Ref, Min: 58.9
Anal sphincter [1]; 24 mg
  Resting Max Pressure Rectal Ref, Max: 153.7
  Resting Max Pressure Rectal Ref, Mean: 90.2
  Resting Max Pressure Rectal Ref, Median: 79.7
  Resting Max Pressure Rectal Ref, Min: 58.8
  Resting Mean Pressure Rectal Ref, Max: 80.0
  Resting Mean Pressure Rectal Ref, Mean: 63.9
  Resting Mean Pressure Rectal Ref, Median: 64.4
  Resting Mean Pressure Rectal Ref, Min: 51.7

## Glucagon
[2]
  rate of absorption: relatively quickly absorbed

## CNC[C@H](O)c1cccc(O)c1 [Phenylephrine]
Anal sphincter [3]; 40 mg, 90 min
  Length HPV: 2.2 cm
  Length Verge to center: 0.8 cm
  Resting Abs ref Max: 109.0 mm Hg
  Resting Abs ref Mean: 95.0 mm Hg
  Resting rectal ref Max: 105.1 mm Hg
  Resting rectal ref Mean: 91.2 mm Hg
  Squeeze Abs ref mean: 348.7
  Squeeze Rectal ref max: 332.4
Anal sphincter [3]; 40 mg, 180 min
  Length HPV: 2.1 cm
  Length Verge to center: 0.5 cm
  Resting Abs ref Max: 127.8 mm Hg
  Resting Abs ref Mean: 93.1 mm Hg
  Resting rectal ref Max: 124.0 mm Hg
  Resting rectal ref Mean: 89.2 mm Hg
  Squeeze Abs ref mean: 336.5
  Squeeze Rectal ref max: 318.8
Anal sphincter [3]; 40 mg, 240 min
  Length HPV: 2.5 cm
  Length Verge to center: 0.8 cm
  Resting Abs ref Max: 94.2 mm Hg
  Resting Abs ref Mean: 82.5 mm Hg
  Resting rectal ref Max: 88.7 mm Hg
  Resting rectal ref Mean: 77.0 mm Hg
  Squeeze Abs ref mean: 376.7
  Squeeze Rectal ref max: 363.3
Anal sphincter [3]; 80 mg in 1 cc volume (8% concentration)
  mean resting anal pressure: significant increase in the mean resting anal pressure
Anal sphincter [3]; 80 mg, 90 min
  Length HPV: 2.2 cm
  Length Verge to center: 0.5 cm
  Resting Abs ref Max: 139.9 mm Hg
  Resting Abs ref Mean: 107.6 mm Hg
  Resting rectal ref Max: 136.5 mm Hg
  Resting rectal ref Mean: 104.2 mm Hg
  Squeeze Abs ref mean: 364.1
  Squeeze Rectal ref max: 352.4
Anal sphincter [3]; 80 mg, 180 min
  Length HPV: 2.6 cm
  Length Verge to center: 0.7 cm
  Resting Abs ref Max: 111.8 mm Hg
  Resting Abs ref Mean: 90.8 mm Hg
  Resting rectal ref Max: 109.2 mm Hg
  Resting rectal ref Mean: 88.2 mm Hg
  Squeeze Abs ref mean: 350.7
  Squeeze Rectal ref max: 337.6
Anal sphincter [3]; 80 mg, 270 min
  Length HPV: 2.5 cm
  Length Verge to center: 0.9 cm
  Resting Abs ref Max: 96.1 mm Hg
  Resting Abs ref Mean: 83.1 mm Hg
  Resting rectal ref Max: 92.5 mm Hg
  Resting rectal ref Mean: 79.5 mm Hg
  Squeeze Abs ref mean: 340.4
  Squeeze Rectal ref max: 321.2
Anal sphincter [3]; 40 and 80 mg
  anal sphincter pressures at resting and at squeezing conditions: increased in a dose-dependent manner
Anal canal; 30% and 40%, compared with placebo
  resting pressure: significant increase in resting pressure at both time points compared with placebo
Anal canal; concentrations of 10% and 20%
  median resting pressure: modest increase in median resting pressure, this was not statistically significant
